Laboratory results reported in patent US12643889B2, “Synthesis of novel EP4 antagonist and use in cancer and inflammation” (Wuhan Humanwell Innovative Drug Research And Development …, priority 2020, dated 2026).

Experiments:
human EP4 receptor [1] = molecular target: T1, human EP4 receptor (Homo sapiens, UniProt P35408); assay: Assay for EP4 antagonistic effect (cAMP, PGE2-stimulated CHO stable cell line)
Procedure: After trypsinization, cells were resuspended in a buffer (1×HBSS, 0.1% BSA, 20 mM HEPES, and 500 μM IBMX) and 8000 cells were seeded per well in 384-well plates in a seeding volume of 15 μL. A working solution the compound with a 8× concentration was prepared with an experimental buffer, and then 2.5 μL of the working solution of the compound with 8× concentration was added to the 384-well plate, respectively, and incubated at 37° C. for 30 min. An agonist PGE2 working solution with 8× concentration of (4 nM) was prepared with the experimental buffer and 2.5 μL per well was added to the 384-well plate (the final PGE2 concentration was 0.5 nM) and incubated at 37° C. for 30 min. After the reaction was completed, the amount of cAMP in the cells was quantified according to the method in the instructions of the cAMP test kit (Perkin Elmer, Cat #TRF0263). The antagonistic effects (IC50 value) were calculated for the test compounds.

[2] = Rat pharmacokinetic assay; type: in vivo, male SD rats
Procedure: (§1) In a mouse pharmacokinetic assay, male ICR mice (20 g to 25 g) were selected and fasted overnight. Three mice were selected and intragastrically administered with 5 mg/kg of the corresponding compound. The blood of the mice was collected before the administration and at 15 min, 30 min, 1 h, 2 h, 4 h, 8 h, 24 h after the administration. Another 3 mice were intravenously administered with 1 mg/kg of the corresponding compound, and the blood thereof was collected before the administration and at 15 min, 30 min, 1 h, 2 h, 4 h, 8 h, 24 h after the administration. The blood samples were centrifuged at 6800 g at 2° C. to 8° C. for 6 minutes, and plasma was collected and stored at −80° C. The plasma was taken at respective time point, mixed with 3-5 times the amount of acetonitrile containing internal standard, vortexed for 1 minute, centrifuged at 4° C. for 10 minutes at 13000 rpm, supernatant was added 3 times the amount of water, and the appropriate mixture was taken for LC-MS/MS analysis. The primary pharmacokinetic parameters were analyzed with a WinNonlin 7.0 software, with non-compartmental model.
In a rat pharmacokinetic assay, male SD rats (180 g to 240 g) were selected and fasted overnight. Three rats were intragastrically administered with 5 mg/kg of the corresponding compound. Another 3 rats were intravenously administered with 1 mg/kg of the corresponding compound. The following operations were the same as the mouse pharmacokinetic assay.

human EP4 receptor [3] = molecular target: T1, human EP4 receptor; assay: Assay of calcium current inhibition on EP4 receptor (FLIPR, 293 cells); type: cell-based; set-up: expressed in transfected cells; host or cells: 293 cells; details: 293 cells overexpressing human EP4; PGE2 at EC80; FLIPR
Procedure: The cells were rapidly thawed in a 37° C. water bath, centrifuged, resuspended, and counted. The cell suspensions were seeded at 20 μL/well in two 384-well plates (20,000 cells/well) and placed in an incubator (a 37° C., 5% CO2) overnight. Preparation of a 2× Fluo-4 Direct™ (Invitrogen, Cat #F10471) loading buffer: 77 mg of probenecid was added to 1 mL of a FLIPR buffer, with a concentration of 250 mM. 10 mL of FLIPR buffer and 0.2 mL of probenecid (250 mM) were added to each tube of Fluo-4 Direct™ crystals (F10471).
One of the cell plates was taken out of the incubator and the medium was removed. 20 μL of an assay buffer and 2× Fluo-4 Direct™ non-wash loading buffer were added to the 384-well cell culture plate to a final volume of 40 μL, and then the culture plate was incubated in an incubator (a 37° C., 5% CO2) for 50 minutes, and then at room temperature for 10 minutes, and then the plate was placed in the FLIPR. 10 μL of the buffer was transferred to the cell plate and the fluorescence signal was read. The agonist PGE2 was formulated as a 10 mM stock in a DMSO solvent and 10 concentration points of the 6× working solution were serially diluted using the buffer. 10 μL of the agonist PGE2 was transferred to the cell plate, the fluorescence signal was read to calculate EC80 value.
The agonist PGE2 was prepared at 6× EC80 concentration and the compound to be tested was formulated as a 10 mM stock solution in the DMSO solvent and 10 concentration points of the 6× compound working solution was serially diluted using the buffer.
Another cell plate was taken to remove media and 20 μL of the assay buffer and 2× Fluo-4 Direct™ non-wash loading buffer were added; the cell plate was incubated in a 37° C., 5% CO2 incubator for 50 minutes and room temperature for 10 minutes and then placed in the FLIPR. 10 μL of the compound working solution, DMSO, and the EP4 full antagonist were transferred to the cell plate and the fluorescence signal was read. […] Inhibition (%)=100−(test group−EP4 full antagonist group)/(DMSO group−EP4 full antagonist group)*100
Compound's IC50 value of EP4 calcium current inhibition was calculated based on the inhibition rate at different concentrations of the compound.

[4] = Mouse pharmacokinetic assay; type: in vivo, male ICR mice; details: male, ICR, plasma
Procedure: as §1

[5] = system: CT-26 murine colon cancer tumor model; assay: Anti-tumor effect in CT-26 murine colon cancer tumor model in combination with radiation therapy; type: in vivo, mouse; details: 150 mg/kg intragastric once daily in combination with radiotherapy (3Gry, once on day 1); day 23; tumor weight
Procedure: In this assay, the anti-tumor effects of the control compound and the compounds prepared in Examples 1 to 43, in combination with radiation therapy, were tested in a CT-26 murine colon cancer tumor model.
After one week of adaptive feeding of mice, CT-26 cells in a log phase were resuspended in PBS, 5×10^5 CT-26 cells were inoculated subcutaneously at the right flank at 100 μL per mouse, and tumor growth was observed regularly. When the tumor grew to an average volume of 60 to 80 mm^3, the mice carrying the tumor were randomly divided into 5 groups based on the tumor volume size, each group containing 10 mice of 10. These group were a group of Control compound (150 mg/kg) in combination with radiotherapy (3Gry), a group of Compound I-2 (150 mg/kg) in combination with radiotherapy, a group of Compound I-5 (150 mg/kg) in combination with radiotherapy, a group of radiotherapy (3Gry) alone, and a group of vehicle control. The mice were intragastrically administered with the corresponding compound once daily, for 23 days in total; radiation therapy was performed for one-time on the first day of the administration. Tumor volumes and mouse body weights were measured twice a week, and tumor weights were weighed at the end of the experiment. Efficacy evaluations were performed based on relative tumor inhibition (TGI), safety evaluations were performed based on changes in animal body weight and death. Tumor volume and relative tumor inhibition were calculated as follows:
Tumor volume (TV)=½×a×b^2, where a and b are the length and width of the tumor measurement, respectively.
Relative tumor inhibition rate TGI (%)=(TWc−TWt/TWc)×100%, where TWc is the mean tumor weight of the vehicle control group and TW is the mean tumor weight of the treatment group.

[6] = male, SD, plasma, rat, intravenous administration 1 mg/kg
[7] = male, SD, plasma, rat, oral gavage administration 5 mg/kg
[8] = intravenous administration 1 mg/kg
[9] = oral gavage administration 5 mg/kg

T1 sequence (P35408 whole entry): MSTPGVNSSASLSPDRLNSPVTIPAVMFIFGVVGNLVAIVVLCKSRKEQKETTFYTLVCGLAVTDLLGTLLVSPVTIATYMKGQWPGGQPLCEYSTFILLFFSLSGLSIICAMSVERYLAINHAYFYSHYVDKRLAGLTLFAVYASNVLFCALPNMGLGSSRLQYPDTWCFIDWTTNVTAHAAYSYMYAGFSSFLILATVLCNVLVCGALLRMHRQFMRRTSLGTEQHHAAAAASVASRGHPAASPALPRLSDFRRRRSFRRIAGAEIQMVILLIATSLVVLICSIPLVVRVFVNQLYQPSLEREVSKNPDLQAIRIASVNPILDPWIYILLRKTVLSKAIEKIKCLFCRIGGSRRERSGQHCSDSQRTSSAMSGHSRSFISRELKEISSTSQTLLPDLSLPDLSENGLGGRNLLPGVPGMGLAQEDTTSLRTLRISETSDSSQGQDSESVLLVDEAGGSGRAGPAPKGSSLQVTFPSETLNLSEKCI

SMILES: C[C@H](NC(=O)c1c(C(F)F)nn(C)c1Oc1cccc(C(C)(F)F)c1)c1ccc(C(=O)O)cc1 [Compound I-5, (S)-4-(1-(5-(3-(1,1-difluoroethyl)phenoxy)-3-(difluoromethyl)-1-methyl-1H-pyrazole-4-carboxamido)ethyl)benzoic Acid]
- IC50 (human EP4 receptor [1]): 2.2 nM
- AUC(0-t) [2, 6]: 1.67 µg·h/mL
- clearance [2, 6]: 0.57 L/h/kg
- half-life [2, 6]: 9.3 h
- Vd ([2]; male, SD, plasma, rat, intravenous administration 1 mg/kg, read-out: Vz): 7.66 L/kg
- AUC(0-t) [2, 7]: 10.8 µg·h/mL
- Cmax [2, 7]: 0.993 µg/mL
- Tmax [2, 7]: 2 h
- half-life [2, 7]: 9.87 h
- exposure after oral administration relative to the control compound ([2]; rats, oral administration): about 2 times
- IC50 (human EP4 receptor [3]): 12 nM
- AUC(0-t) [4, 8]: 1.26 µg·h/mL
- clearance [4, 8]: 0.76 L/h/kg
- half-life [4, 8]: 5.11 h
- Vd ([4]; intravenous administration 1 mg/kg, read-out: Vz): 5.62 L/kg
- AUC(0-t) [4, 9]: 2.71 µg·h/mL
- Cmax [4, 9]: 1.45 µg/mL
- Tmax [4, 9]: 0.33 h
- half-life [4, 9]: 7 h
- relative tumor inhibition rate TGI (%) [5]: 79%
